Laboratory results as given in patent publication US20260184663A1, “INDENE COMPOUNDS, PHARMACEUTICAL COMPOSITIONS THEREOF, AND THEIR THERAPEUTIC APPLICATIONS” (NucMito Pharmaceuticals co. Ltd., priority 2022, published 2026).

Experiments:
Type in all cases: cell-based
[1] = test system: MDA-MB-231 (breast cancer); test: Antiproliferative activity (CCK-8 cell viability), MDA-MB-231; conditions: Homo sapiens, 72 h, read-out: Antiproliferative activity in cancerous cells, MDA-MB-231 (inhibition of cell growth); for inhibition at 3.3 µM: Compound concentration: 3.3 μM; for inhibition at 10 µM: Compound concentration: 10 μM
Method in brief: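 Growth inhibition of human MDA-MB-231 breast cancer cells was assessed with a Cell Counting Kit-8. Cells cultured in DMEM plus 10% FBS were seeded at 2,000-5,000 cells/well, treated after attachment, and kept 72 h at 37° C. CCK-8 solution (10 μL) was added for 4 h, and absorbance at 450 nm was compared with DMSO-treated controls.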

[2] = test system: HepG2 (liver cancer); test: Antiproliferative activity (CCK-8 cell viability), HepG2; conditions: Homo sapiens, 72 h, read-out: Antiproliferative activity in cancerous cells, HepG2 (inhibition of cell growth); for inhibition at 3.3 µM: Compound concentration: 3.3 μM; for inhibition at 10 µM: Compound concentration: 10 μM
Method in brief: (§1)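 Growth inhibition graded in bands from percent viability against DMSO vehicle, read as CCK-8 absorbance at 450 nm. Compound tested at 3.3, 10 or 30 μM for 72 h, 37 °C; media contained 10% FBS: DMEM for HepG2/SW480, MEM for HeLa, F-12K for A549.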

[3] = test system: SW480 (colon cancer); test: Antiproliferative activity (CCK-8 cell viability), SW480; conditions: Homo sapiens, 72 h, read-out: Antiproliferative activity in cancerous cells, SW480 (inhibition of cell growth); for inhibition at 3.3 µM: Compound concentration: 3.3 μM; for inhibition at 10 µM: Compound concentration: 10 μM
Method in brief: as §1

[4] = test system: B16F10 (malignant melanoma); test: Antiproliferative activity (CCK-8 cell viability), B16F10; conditions: Mus musculus, 72 h, read-out: Antiproliferative activity in cancerous cells, B16F10 (inhibition of cell growth); for inhibition at 3.3 µM: B16-F10, Compound concentration: 3.3 μM; for inhibition at 10 µM: B16-F10, Compound concentration: 10 μM
Method in brief: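 Cell growth inhibition was measured in B16F10 malignant melanoma cells with a Cell Counting Kit-8 viability assay. Cells were maintained in DMEM plus 10% fetal bovine serum, seeded at 2,000-5,000 cells/well in 96-well plates, and treated for 72 h at 37° C. Viability was expressed relative to DMSO-treated vehicle control wells.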

[5] = test system: A431 (epidermoid carcinoma); test: Antiproliferative activity (CCK-8 cell viability), A431; conditions: Homo sapiens, 72 h, read-out: Antiproliferative activity in cancerous cells, A431 (inhibition of cell growth); for inhibition at 3.3 µM: A-431, Compound concentration: 3.3 μM; for inhibition at 10 µM: A-431, Compound concentration: 10 μM
Method in brief: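 This growth inhibition assay used A431 cells maintained in Dulbecco's modified Eagle's medium plus 10% fetal bovine serum. Cells were seeded in 96-well plates, treated with compound for 72 h at 37° C., and then given 10 μL CCK-8 solution. After a further 4 h, absorbance was read at 450 nm.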

[6] = test system: A549 (lung adenocarcinoma); test: Antiproliferative activity (CCK-8 cell viability), A549; conditions: Homo sapiens, 72 h, read-out: Antiproliferative activity in cancerous cells, A549 (inhibition of cell growth); for inhibition at 3.3 µM: Compound concentration: 3.3 μM; for inhibition at 10 µM: Compound concentration: 10 μM
Method in brief: as §1

[7] = test system: HeLa (cervical cancer); test: Antiproliferative activity (CCK-8 cell viability), HeLa; conditions: Homo sapiens, 72 h, read-out: Antiproliferative activity in cancerous cells, HELA (inhibition of cell growth); for inhibition at 3.3 µM: Compound concentration: 3.3 μM; for inhibition at 10 µM: Compound concentration: 10 μM
Method in brief: as §1

Row | Compound | inhibition at 3.3 µM [1] | inhibition at 10 µM [1] | inhibition at 3.3 µM [2] | inhibition at 10 µM [2] | inhibition at 3.3 µM [3] | inhibition at 10 µM [3] | inhibition at 3.3 µM [4] | inhibition at 10 µM [4] | inhibition at 3.3 µM [5] | inhibition at 10 µM [5] | inhibition at 3.3 µM [6] | inhibition at 10 µM [6] | inhibition at 3.3 µM [7] | inhibition at 10 µM [7] | other results
1 | CC1=C(CC(=O)O)c2cc(Cl)c(Cl)cc2/C1=C/c1ccc(Oc2ccc(F)cc2)cc1 [E28, (E)-2-(5,6-Dichloro-1-(4-(4-fluorophenoxy)benzylidene)-2-methyl-1H-inden-3-yl)acetic acid] | ≥ 50% | ≥ 50% | ≥ 50% | ≥ 50% | < 30% | ≥ 50% | ≥ 50% | ≥ 50% | 30 to 50% | ≥ 50% | ≥ 50% | ≥ 50% | ≥ 50% | ≥ 50% | inhibition at 30 µM ([1]; Compound concentration: 30 μM): ≥ 50%; inhibition at 30 µM ([2]; Compound concentration: 30 μM): ≥ 50%; inhibition at 30 µM ([3]; Compound concentration: 30 μM): ≥ 50%; inhibition at 30 µM ([4]; B16-F10, Compound concentration: 30 μM): ≥ 50%; inhibition at 30 µM ([5]; A-431, Compound concentration: 30 μM): ≥ 50%; inhibition at 30 µM ([6]; Compound concentration: 30 μM): ≥ 50%; inhibition at 30 µM ([7]; Compound concentration: 30 μM): ≥ 50%
2 | CC1=C(CC(=O)O)c2cc(F)ccc2/C1=C\c1ccc(CSc2nc3ccccc3[nH]2)cc1 [B44, (Z)-2-(1-(4-(((1H-Benzo[d]imidazol-2-yl)thio)methyl)benzylidene)-5-fluoro-2-methyl-1H-inden-3-yl)acetic acid] | ≥ 50% | ≥ 50% | ≥ 50% | ≥ 50% | 30 to 50% | ≥ 50% | ≥ 50% | ≥ 50% | < 30% | ≥ 50% | < 30% | ≥ 50% | ≥ 50% | ≥ 50% | 
3 | CC1=C(CC(=O)O)c2cc(F)ccc2/C1=C\c1ccc(OCCc2ccc(F)cc2)cc1 [B31, (Z)-2-(5-Fluoro-1-(4-(4-fluorophenethoxy)benzylidene)-2-methyl-1H-inden-3-yl)acetic acid] | < 30% | ≥ 50% | < 30% | ≥ 50% | < 30% | < 30% | ≥ 50% | ≥ 50% | 30 to 50% | ≥ 50% | 30 to 50% | 30 to 50% | < 30% | ≥ 50% | 
4 | CC1=C(CC(=O)O)c2cc(F)ccc2/C1=C\c1cccc(Oc2cccc(Cl)c2)c1 [C101, (Z)-2-(1-(3-(3-Chlorophenoxy)benzylidene)-5-fluoro-2-methyl-1H-inden-3-yl)acetic acid] | < 30% | < 30% | < 30% | ≥ 50% | < 30% | 30 to 50% | ≥ 50% | ≥ 50% | 30 to 50% | ≥ 50% | < 30% | < 30% | < 30% | 30 to 50% | 
